Results as given in US4829086A, “Soft β-adrenergic blocking agents” (priority 1985, dated 1989).

Legend:
β-adrenergic [1] = assay: β-adrenergic activity of the acid metabolite (statement)
[2] = Hydrolytic rate in 0.01 N aqueous sodium hydroxide, pH 12.0; type: physicochemical; details: pH 12.0, ionic strength 0.10 M (NaCl), 27.3 ± 0.2° C.; for Observed pseudo first order hydrolytic rate constant k: 0.01 N NaOH, ± SEM; for half-life: 0.01 n naoh, pH 12, 0.01 N NaOH, read-out: Half-life t1/2
Procedure: (§1) Analytical Methods. A high pressure liquid chromatography (HPLC) method was developed for the determination of the rate constants. The chromatographic analysis was performed in a system consisting of Waters Associates Model 600-A Solvent Delivery System, Model U-6K Injector and Model 440 Dual Channel Absorbance Detector operated at 254 and 280 nm. A 30 cm×3.9 mm (internal diameter) reverse phase μBondpack C18 column (Waters Associates), operated at ambient temperature, was used for all separations. When plasma samples were analyzed, the column was protected with a 2.3 cm×3.9 mm (internal diameter) Guard Column (Waters) packed with μBondpack C18/Corasil packing material. The mobile phase used for the separation of 17 and its degradation product, 5, consisted of water, 1-hexane sulfonic acid in acetic acid (B-6 reagent, Waters), 0.1M triethanolamine and methanol (100:1:100:799). […] For the separation of compounds 10-16 and 18 and their degradation product 5, a mobile phase consisting of water, 1-hexane sulfonic acid in acetic acid (B-6 reagent, Waters), 0.1M triethanolamine and methanol (390:1:10:599) was used.
(§2) Determination of the Hydrolytic Rate Constants in Aqueous Solutions. A 0.01M phosphate buffer and 0.01N sodium hydroxide solution were prepared from freshly distilled deionized water. This ionic strength was maintained at 0.1M with sodium chloride. The pH of the phosphate buffer was determined at 37.0° C. with a pH meter standardized at this temperature. For determination of the hydrolytic rate constants, a fresh concentrated solution of the ester in methanol was added to the hydrolytic medium previously equilibrated to the desired temperature and mixed thoroughly to result in an initial concentration of about 5×10^-4 mol. liter^-1. All reactions were run under pseudo first order conditions. Samples of 25 μL were injected into the column at various time intervals and the pseudo first order rate constants were determined from disappearance of the compound by linear regression of natural logarithm of the peak height versus time plots. The half-life and standard error of the rate constant were calculated for each run.

[3] = Hydrolysis in 0.01M phosphate buffer pH 7.4; type: physicochemical; details: pH 7.4, 37° C.
Procedure: Analytical Methods. A high pressure liquid chromatography (HPLC) method was developed for the determination of the rate constants. The chromatographic analysis was performed in a system consisting of Waters Associates Model 600-A Solvent Delivery System, Model U-6K Injector and Model 440 Dual Channel Absorbance Detector operated at 254 and 280 nm. A 30 cm×3.9 mm (internal diameter) reverse phase μBondpack C18 column (Waters Associates), operated at ambient temperature, was used for all separations. When plasma samples were analyzed, the column was protected with a 2.3 cm×3.9 mm (internal diameter) Guard Column (Waters) packed with μBondpack C18/Corasil packing material. The mobile phase used for the separation of 17 and its degradation product, 5, consisted of water, 1-hexane sulfonic acid in acetic acid (B-6 reagent, Waters), 0.1M triethanolamine and methanol (100:1:100:799). […]
Determination of the Hydrolytic Rate Constants in Aqueous Solutions. […] The pH of the phosphate buffer was determined at 37.0° C. with a pH meter standardized at this temperature. […] Samples of 25 μL were injected into the column at various time intervals and the pseudo first order rate constants were determined from disappearance of the compound by linear regression of natural logarithm of the peak height versus time plots. The half-life and standard error of the rate constant were calculated for each run.

[4] = Enzymatic hydrolytic cleavage in human plasma; type: in vitro ADME; details: 37.0 ± 0.1° C.; for Observed first order hydrolytic rate constant k: ± SEM; for half-life at 1000 µM: human, plasma, read-out: Half-life t1/2
Procedure: as §1, §2
Determination of the Enzymatic Hydrolytic Cleavage Rates in Human Plasma. The freshly collected plasma used was obtained from the Civitan Regional Blood Center, Inc. (Gainesville, Fla.) and contained about 80% plasma diluted with anticoagulant citrate phosphate dextrose solution, U.S.P. The plasma was stored in a refrigerator and used within one week from the date it was collected.
A portion of 50 μL of a freshly prepared solution of the compound in methanol was added to 10 mL plasma, previously equilibrated at 37.0° C. in a water bath, and mixed thoroughly to result in an initial concentration of 1×10^-3 mol. liter^-1. One mL samples of plasma were withdrawn from the test medium, mixed immediately with 4.0 mL ice cold 95% v/v ethanol, centrifuged and the supernatant analyzed by HPLC. The first order hydrolytic rate constant was determined as before in the aqueous solutions and the results are listed in TABLE II below.

[5] = test system: heart rate response to isoproterenol (β-adrenergic); assay: Heart rate response to isoproterenol in rats (initial drug screening); type: in vivo, male Spraque-Dawley rats; details: 6 mg/kg i.p.; mean ± SEM
Excerpt: (§3) Initial Drug Screening Protocol. Thirty-two male Spraque-Dawley rats (Blue Spruce Farms) initially weighing 300-450 gm were divided into seven different groups, each for a different drug to be tested: 12(n=4), 14(n=4), 17(n=5), 13(n=4) and 18(n=3), corresponding to the designated compounds 12, 14, 17, 13 and 18 (number of animals), respectively. The other two groups were controls (n=8, isoproterenol alone pretreated with carrier) and those treated with a known β-blocker, dl-propranolol (n=3). Ech animal was anesthetized with sodium pentobarbital (45 mg/kg) and the carotid artery was cannulated with PE-50 tubing. The cannula was subcutaneously threaded around the neck and exteriorized dorsally between the shoulder blades. Th cannula was filled with a heparin solution (300 μg/mL) and sealed with a solid 22 gauge stylet. The animals were housed in individual stainless steel cages, and two days were allowed for recovery from the surgery. Food and water were provided ad libitum. On the day of the experiment, the blood pressure and heart rate of each rat were monitored with a pressure transducer (Narco-Bio model P-1000) and the data recorded on a four-channel physiograph (Narco-Bio systems Marck IV). One hour was allowed as an equilibration period before any drugs were administered. All beta blockers were administered intraperitoneally at a dose of 6 mg/kg. Compounds 12 and 14 and dl-proranolol were dissolved in normal saline while compounds 13, 17 and 18 were dissolved in an ethanol: water solution (3:1). Depending on the trial, controls were administered the appropriate carrier. One hour after administration of the blocker, isoproterenol (Isuprel®, Wintrop Laboratories) was administered subcutaneously at a dose of 25 μg/kg. Blood pressures and heart rate also were recorded 3, 5, 10, 15, 20, 30, 45 and 60 minutes after isoproterenol administration. Both control and experimental animals were unrestrained and free moving in their home cage throughout the experiment. […] However, significant differences in the mean heart rate response amoung the 7 groups were observed: *p<0.005;**p<0.025. Comparisons between groups were made by the Newman-Keuls procedure with significance set at the 95% confidence interval. […] All data are shown as mean±standard error of the mean.

[6] = test system: blood pressure response to isoproterenol; assay: Blood pressure response to isoproterenol in rats; type: in vivo, male Spraque-Dawley rats; details: 6 mg/kg i.p., isoproterenol 25 μg/kg s.c.; FIG. 3
Excerpt: as §3
Symbols are the same as those described for FIG. 1. […] Data are shown as mean±standard error of the mean.

β-adrenergic [7] = details: major metabolite found in the urine; Borg et al; cited from earlier work

SMILES: CC(C)NCC(O)COc1ccc(CC(=O)O)cc1 (centres unmarked) [Compound 5, 4-(2-Hydroxy-3-isopropylamino)propoxyphenylacetic acid]
- activity of acid (β-adrenergic [1]): inactive

SMILES: CCCOC(=O)Cc1ccc(OCC(O)CNC(C)C)cc1 (centres unmarked) [Compound 11, n-Propyl 4-(2-hydroxy-3-isopropylamino)propoxyphenylacetate]
- Observed pseudo first order hydrolytic rate constant k [2]: 0.103 ± 0.001 min⁻¹
- half-life [2]: 6.73 min
- half-life [3]: 8.7 days
- Observed first order hydrolytic rate constant k [4]: 0.143 ± 0.005 min⁻¹
- half-life at 1000 µM [4]: 4.86 min

SMILES: CC(C)NCC(O)COc1ccc(CC(=O)OCc2ccccc2)cc1 (centres unmarked) [Compound 14, Benzyl 4-(2-hydroxy-3-isopropylamino)propoxyphenylacetate]
- Observed pseudo first order hydrolytic rate constant k [2]: 0.208 ± 0.004 min⁻¹
- half-life [2]: 3.33 min
- half-life [3]: 13 days
- Observed first order hydrolytic rate constant k [4]: 0.236 ± 0.007 min⁻¹
- half-life at 1000 µM [4]: 2.93 min
- resting heart rate prior to administration of isoproterenol [5]: 405±22 beat/minute
- mean change in blood pressure vs propranolol and compound 12-treated groups [6]: significantly lower (p<0.15)

SMILES: CC(C)NCC(O)COc1ccc(CC(=O)O)cc1 (centres unmarked) [drawing 10]
- activity as metabolite of metoprolol (β-adrenergic [7]): inactive metabolite
